In patent US6410588B1, “Use of cannabinoids as anti-inflammatory agents” (priority 1998, dated 2002):
“Also recorded” adds a separate entry of the source.

Key:
[1] = test system: chronic CIA; assay: chronic CIA model (mouse CII), CBD i.p.; format: in vivo; conditions: 5 weeks
Method: Results are expressed as a mean of 6 mice. The AUC for the control group is 38.4, and for the 5 mg/kg group 28.9.
For the chronic experiments, 6 weeks old mice were immunized with mouse CII (100 μg CII i.d.=intradermal). From day 30 after immunization onwards, the mice developed a chronic relapsing arthritis, which was monitored for 5 weeks, in the same way as described above.
For the chronic experiment with mouse CII, mice were treated from the first symptoms of arthritis every other day, for 5 weeks. […] Again, mice injected with Vehicle alone served as controls (n=7). For the oral route, the treatment was administered daily at a dose of 25 mg/kg (n=6) and control mice were fed olive oil (n=6).

[2] = test system: serum TNFα; assay: serum TNFα level after LPS stimulation (bioassay); format: in vivo, mouse (C57BL/6); conditions: 10 mg/kg (200 μg/mouse) ip or s.c. with 100 μg LPS ip; 90 min
Method: After 90 min. the mice were bled and serum TNFα level was determined by bioassay.

[3] = test system: TNFα; conditions: cited from earlier work
[4] = test system: animal models predictive of antipsychotic activity; conditions: in vivo; cited from earlier work
[5] = test system: nitric oxide (NO) generation; assay: nitric oxide (NO) generation by Thioglycollate induced macrophages, Griess reagent; format: cell-based, mouse
[6] = test system: IFNγ; conditions: cited from earlier work
[7] = test system: IFNγ production; assay: IFNγ release by PHA-stimulated human PBMC; format: cell-based; conditions: PHA 5 μg/ml 72 hours, mean ± SEM
Method: (§1) CBD was dissolved in ethanol/DMSO.
(§2) Peripheral blood mononuclear cells (PBMC) were isolated from the whole blood of healthy donors by Ficoll Hypaque gradient. […] After this 6 hour pretreatment period, the cells were stimulated with either LPS from Salmonella typhimirium, 10 ng/ml, for 24 hours (for TNF and IL-1β) or with PHA, 5 μg/ml, for 72 hours (for IFNγ) Viability of the PBMC was assessed with the MTT test.
(§3) Human PBMC were cultured and stimulated with or without CBD, as described in Materials and Methods. The stimulus for TNF and IL-1 production was LPS, the stimulus for IFNγ production was PHA. The results are the mean of triplicate wells±SEM. ND=not done.

[8] = test system: schizophrenia; conditions: in vivo; cited from earlier work
[9] = test system: ROI production by granulocytes; assay: ROI production by granulocytes, luminol-enhanced chemiluminescence response to zymosan; format: cell-based, mouse (C57BL/6)
Method: Thioglycollate-elicited granulocytes were harvested from C57BL/6 mice by sterile lavage with PBS 18 hrs. after intraperitoneal injection with 1.5 ml thioglycollate medium (1.5 ml in 3% solution). The cells were washed and resuspended at 5×10^5 cells/ml in Hanks' buffered salt solution without phenol red, and distributed at 0.5 ml/tube into luminometer plastic tubes. […] The tube was inserted into luminometer (Biolumate LB 95 oot Berhold Wildbad Germany) which had been prewarmed to 37° C. The granulocyte luminol-enhanced chemiluminescence response to zymosan was considered as the positive control.

[10] = test system: IL-8; assay: human rheumatoid synovial cell IL-8 production (ELISA); format: cell-based; conditions: for IL-8, mean: 48 hours culture
Method: Synovial membrane tissue was obtained from a patient fulfilling the revised American College of Rheumatology criteria for rheumatoid arthritis who underwent joint replacement surgery. Synovial cell cultures were prepared as described. Briefly, synovial membrane tissue was digested with collagenase type A (1 mg/ml) and DNAase I (0.15 mg/ml) in RPMI 1640 containing 5% FCS for 2 hours at 37° C.
Similarly, rheumatoid synovial cells spontaneously produce cytokines when cultured in vitro. […] With restricted number of human synovial cells in this sample, the optimal dose for inhibiting TNFα may have been missed.

[11] = test system: Legionella; conditions: mouse, in vivo; cited from earlier work
[12] = test system: mRNA of IL-1, IL-6 and TNFα; conditions: BALB/C mice injected with cannabidiol; cited from earlier work
[13] = test system: IL-1β release; assay: IL-1β release by LPS-stimulated human PBMC; format: cell-based; conditions: for IL-1β: LPS 10 ng/ml 24 hours, mean ± SEM
Method: as §1, §2, §3

[14] = test system: anticonvulsant effects; conditions: in vivo; cited from earlier work
[15] = LPS 1 μg/ml + IFNγ 10 U/ml, CBD 2 μg/ml
[16] = LPS 1 μg/ml + IFNγ 10 U/ml, CBD 4 (μg/ml)
[17] = LPS 1 μg/ml + IFNγ 10 U/ml, CBD 6 (μg/ml)
[18] = LPS 1 μg/ml + IFNγ 10 U/ml, CBD 8 (μg/ml)

C=C(C)[C@@H]1CCC(C)=C[C@H]1c1c(O)cc(CCCCC)cc1O [CBD, Cannabidiol]
suppression of chronic arthritis (in words) ([1]; 5 mg/kg i.p.): optimal in suppressing the arthritis | area under the curve (AUC) of arthritis score ([1]; 5 mg/kg i.p., control group 38.4): 28.9 | suppression of chronic arthritis (in words) ([1]; 10 mg/kg i.p.): less effective than 5 mg/kg | serum TNFα level (in words) [2]: decreases serum TNFα production; also recorded: reduces serum TNFα levels | TNFα production [3]: decreased | efficacy in animal models predictive of antipsychotic activity [4]: effective | % INHIBITION of NO, 24 h [5, 15]: 14% | NO, 24 h [5, 15]: 12 nM | NO, 48 h ([5]; LPS 1 μg/ml + IFNγ 10 U/ml, CBD 2 (μg/ml)): 25.4 nM | % INHIBITION of NO, 24 h [5, 16]: 51% | NO, 24 h [5, 16]: 6.9 nM | NO, 48 h [5, 16]: 21.3 nM | % INHIBITION of NO, 24 h [5, 17]: 61% | NO, 24 h [5, 17]: 5.5 nM | NO, 48 h [5, 17]: 18.1 nM | % INHIBITION of NO, 24 h [5, 18]: 99% | NO, 24 h [5, 18]: 0.2 nM | % INHIBITION of NO, 48 h [5, 18]: 85% | NO, 48 h [5, 18]: 3.1 nM | % INHIBITION of NO, 24 h ([5]; LPS 1 μg/ml, CBD 2 (μg/ml)): 32% | NO, 24 h ([5]; LPS 1 μg/ml, CBD 2 (μg/ml)): 3.7 nM | % INHIBITION of NO, 48 h ([5]; LPS 1 μg/ml, CBD 2 (μg/ml)): 9% | NO, 48 h ([5]; LPS 1 μg/ml, CBD 2 (μg/ml)): 6.7 nM | % INHIBITION of NO, 24 h ([5]; LPS 1 μg/ml, CBD 4 (μg/ml)): 90% | NO, 24 h ([5]; LPS 1 μg/ml, CBD 4 (μg/ml)): 0.5 nM | % INHIBITION of NO, 48 h ([5]; LPS 1 μg/ml, CBD 4 (μg/ml)): 37% | NO, 48 h ([5]; LPS 1 μg/ml, CBD 4 (μg/ml)): 4.6 nM | % INHIBITION of NO, 24 h ([5]; LPS 1 μg/ml, CBD 6 (μg/ml)): 99% | NO, 24 h ([5]; LPS 1 μg/ml, CBD 6 (μg/ml)): 0.1 nM | % INHIBITION of NO, 48 h ([5]; LPS 1 μg/ml, CBD 6 (μg/ml)): 71% | NO, 48 h ([5]; LPS 1 μg/ml, CBD 6 (μg/ml)): 2.1 nM | % INHIBITION of NO, 24 h ([5]; LPS 1 μg/ml, CBD 8 (μg/ml)): 99% | NO, 24 h ([5]; LPS 1 μg/ml, CBD 8 (μg/ml)): 0.1 nM | % INHIBITION of NO, 48 h ([5]; LPS 1 μg/ml, CBD 8 (μg/ml)): 95% | NO, 48 h ([5]; LPS 1 μg/ml, CBD 8 (μg/ml)): 0.4 nM | effect on nitric oxide production (in words) ([5]; higher concentrations of CBD): inhibit nitric oxide production | effect on nitric oxide production (in words) ([5]; low concentrations of CBD): activate nitric oxide production | IFNγ synthesis ([6]; high concentrations (5-24 μg/ml)): completely blocked IFNγ synthesis | IFNγ production ([6]; low concentrations): increase IFNγ production | IFNγ ([7]; CBD 0.1 μg/ml): 2062 ± 316 pg/mL | IFNγ ([7]; CBD 1 μg/ml): 1082 ± 75 pg/mL | IFNγ ([7]; CBD 2.5 μg/ml): 1171 ± 138 pg/mL | IFNγ ([7]; CBD 5 μg/ml): 791 ± 43 pg/mL | IFNγ ([7]; CBD 10 μg/ml): 150 ± 43 pg/mL | antipsychotic effects in schizophrenia [8]: antipsychotic effects | Chemiluminescence computer peak ([9]; Zymozan + CBD 5 μg/ml (1 h)): 157 | Chemiluminescence computer peak ([9]; Zymozan + CBD 6 μg/ml (0 h)): 1024 | Chemiluminescence computer peak ([9]; Zymozan + CBD 6 μg/ml (2 h)): 235 | IL-8 release (in words) [10]: dose-dependent inhibition | IL-8, mean ([10]; CBD 0.1 μg/ml): 174 ng/mL | IL-8, mean ([10]; CBD 1 μg/ml): 183 ng/mL | IL-8, mean ([10]; CBD 20 μg/ml): 87 ng/mL | mortality of mice sublethally injected with Legionella [11]: not affected | level of mRNA of IL-1, IL-6 and TNFα [12]: did not show significant change | IL-1β ([13]; CBD 0.1 μg/ml): 621 ± 82 pg/mL | IL-1β ([13]; CBD 1 μg/ml): 671 ± 74 pg/mL | IL-1β ([13]; CBD 2.5 μg/ml): 630 ± 81 pg/mL | IL-1β ([13]; CBD 5 μg/ml): 908 ± 99 pg/mL | IL-1β ([13]; CBD 10 μg/ml): 1575 ± 335 pg/mL | IL-1β ([13]; CBD 20 μg/ml): 2292 ± 251 pg/mL | IL-1β ([13]; CBD 30 μg/ml): 4158 ± 313 pg/mL | effect on LPS-induced IL-1β release (in words) ([13]; higher concentrations of CBD): increased their release | effect on LPS-induced IL-1β release (in words) ([13]; lower concentrations of CBD (0.1 to 5 μg/ml)): significantly suppressed | anticonvulsant effects [14]: anticonvulsant effects
